Reference: PMC6884456, “Supreme activity of gramicidin S against resistant, persistent and biofilm cells of staphylococci and enterococci” (Scientific Reports, 2019)
Where no end group is shown, it is not given here.

Experiments:
[1] = system: S. aureus DSM 1104; assay type: cell-based, Staphylococcus aureus; conditions: S. aureus DSM 1104; 10 µl from MIC plates spotted on Mueller-Hinton agar, overnight 37 °C, no colonies on two plates
[2] = system: S. aureus DSM 1104 SCV; assay type: cell-based, Staphylococcus aureus; conditions: spotted from MIC plates on Mueller-Hinton agar, overnight, no colonies
Experimental: MBC was determined directly after the MIC evaluation.

[3] = system: S. aureus MRSA3; assay type: cell-based, Staphylococcus aureus; conditions: S. aureus MRSA3; spotted from MIC plates on Mueller-Hinton agar, overnight, no colonies
[4] = system: S. aureus MRSA4; assay type: cell-based, Staphylococcus aureus; conditions: S. aureus MRSA4; spotted from MIC plates on Mueller-Hinton agar, overnight, no colonies
[5] = system: S. aureus MRSA9; assay type: cell-based, Staphylococcus aureus; conditions: S. aureus MRSA9; spotted from MIC plates on Mueller-Hinton agar, overnight, no colonies
[6] = system: S. aureus MRSA538 SCV; conditions: spotted from MIC plates on Mueller-Hinton agar, overnight, no colonies
Experimental: (§1) MBC was determined directly after the MIC evaluation. The 10 µl samples of all 8 dilution rows in the microtiter plates were spotted on square Mueller-Hinton agar plates and incubated overnight at 37 °C and 5% CO2. The MBC was determined as the concentration at which no bacterial colonies were obtained on the two parallel spotted plates.

[7] = system: S. aureus MRSA8 SCV; conditions: spotted from MIC plates on Mueller-Hinton agar, overnight, no colonies
Experimental: as §1

[8] = system: S. aureus MRSA9 SCV; conditions: spotted from MIC plates on Mueller-Hinton agar, overnight, no colonies
Experimental: as §1

[9] = system: E. faecalis DSM 2570; assay type: cell-based, Enterococcus faecalis; conditions: E. faecalis DSM 2570; spotted from MIC plates on Mueller-Hinton agar, overnight, no colonies
[10] = system: E. faecalis WW4; assay type: cell-based, Enterococcus faecalis; conditions: E. faecalis WW4; spotted from MIC plates on Mueller-Hinton agar, overnight, no colonies
[11] = system: E. faecalis WW6; assay type: cell-based, Enterococcus faecalis; conditions: E. faecalis WW6; spotted from MIC plates on Mueller-Hinton agar, overnight, no colonies
[12] = system: E. faecalis TRE1; assay type: cell-based, Enterococcus faecalis; conditions: E. faecalis TRE1; spotted from MIC plates on Mueller-Hinton agar, overnight, no colonies
[13] = system: E. faecalis TRE2; assay type: cell-based, Enterococcus faecalis; conditions: E. faecalis TRE2; spotted from MIC plates on Mueller-Hinton agar, overnight, no colonies
[14] = system: E. faecalis TRE4; assay type: cell-based, Enterococcus faecalis; conditions: E. faecalis TRE4; spotted from MIC plates on Mueller-Hinton agar, overnight, no colonies
[15] = system: E. faecium VRE1; assay type: cell-based, Enterococcus faecium; conditions: E. faecium VRE1; spotted from MIC plates on Mueller-Hinton agar, overnight, no colonies
[16] = system: E. faecium VRE2; assay type: cell-based, Enterococcus faecium; conditions: E. faecium VRE2; spotted from MIC plates on Mueller-Hinton agar, overnight, no colonies
[17] = system: S. aureus DSM 1104 SCV; assay type: cell-based, Staphylococcus aureus; conditions: value in parentheses
Experimental: (§2) This parameter quantifies the ability of the peptides to prevent biofilm outgrowth.
(§3) After co-incubation with peptides at 37 °C and 5% CO2 without agitation for 24 hours, the planktonic cells were washed, and Crystal violet staining was applied.

[18] = system: E. faecalis DSM 2570; conditions: E. faecalis DSM 2570; value in parentheses
Experimental: as §2, §3

[19] = system: E. faecalis TRE2; conditions: E. faecalis TRE2; value in parentheses
Experimental: as §2, §3

[20] = system: E. faecalis WW6; conditions: E. faecalis WW6; Todd-Hewitt broth, 5 × 10^7 CFU/ml, 24 h, 37 °C, Crystal violet
Experimental: as §2, §3

[21] = system: S. aureus DSM 1104; conditions: S. aureus DSM 1104; value in parentheses
Experimental: as §2, §3

[22] = system: S. aureus MRSA8 SCV; conditions: value in parentheses
Experimental: as §2, §3

[23] = biological target: human serum albumin (HSA) (Homo sapiens, UniProt P02768); experiment: HSA binding, biomimetic chromatography; conditions: Chiralpak-HSA column
Sequence of human serum albumin (HSA) (P02768 25-609): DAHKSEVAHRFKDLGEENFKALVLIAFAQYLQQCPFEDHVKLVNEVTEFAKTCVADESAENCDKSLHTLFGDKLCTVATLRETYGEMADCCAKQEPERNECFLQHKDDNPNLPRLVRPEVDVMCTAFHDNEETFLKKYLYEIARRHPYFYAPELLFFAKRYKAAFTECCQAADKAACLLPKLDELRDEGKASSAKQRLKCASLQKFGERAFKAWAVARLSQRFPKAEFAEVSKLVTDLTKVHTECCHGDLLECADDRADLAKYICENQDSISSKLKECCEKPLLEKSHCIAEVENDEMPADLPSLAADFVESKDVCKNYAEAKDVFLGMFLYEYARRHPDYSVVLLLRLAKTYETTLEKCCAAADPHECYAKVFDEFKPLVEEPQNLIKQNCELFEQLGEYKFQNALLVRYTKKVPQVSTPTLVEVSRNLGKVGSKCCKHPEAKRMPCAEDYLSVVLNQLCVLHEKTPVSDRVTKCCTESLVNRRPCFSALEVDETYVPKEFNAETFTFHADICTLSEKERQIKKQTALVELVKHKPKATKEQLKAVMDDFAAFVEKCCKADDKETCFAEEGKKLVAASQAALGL
Experimental: (§4) HPLC was performed on an Agilent 1100 system with an ultraviolet diode array detector. […] Binding measurements were performed using Regis Technologies IAM.PC.DD2 (100 × 4.6 mm), HiChrom Chiralpak-HSA (50 × 3 mm) and HiChrom Chiralpak-AGP (50 × 3 mm) columns. […] Retention times were converted to log k and % binding, using calibration routines described in[72].

[24] = system: α1-acid glycoprotein (AGP); experiment: AGP binding, biomimetic chromatography; conditions: Chiralpak-AGP column
Experimental: as §4

[25] = Chromatographic hydrophobicity index (CHI), C18
Experimental: as §4

[26] = system: Danio rerio embryos; experiment: Acute toxicity in Danio rerio embryos; assay type: in vivo; conditions: zebrafish embryos 72 hpf, E3 medium, heart beat
Experimental: Experiments were performed in accordance with the relevant OECD testing guidelines[73] and German animal protection standards. Wild type D. rerio embryos were obtained at the European Zebrafish Resource Center (Karlsruhe). Fertilized eggs (6 hpf) were raised in 4 ml of embryonic medium (E3) at 28 °C until 72 hpf (6-well plate, 20 eggs/well). Embryos were transferred into flat-bottom glass vials (E3, 1 ml, 15–20 embryos/vial). Peptides were added as 20 µl aliquots in 10% dimethyl sulfoxide in serial 2-fold dilutions. Toxicity was expressed as the concentration at which 50% of the embryos were visually observed to die (measured at 1 and 3 hours exposure) by identifying the heart beat.

[27] = system: human erythrocytes; experiment: Haemolysis assay; assay type: cell-based; conditions: 0.25% human erythrocyte suspension, 37 °C, 30 min, A540, relative to 0.1% Triton X-100
Experimental: Haemolytic activity was determined with a serial 2-fold dilution assay. Citrate phosphate dextrose-stabilized human erythrocyte suspensions were obtained from Karlsruhe Municipal Hospital. […] The mixture was pelleted (13 000 rpm, 10 min, 4 °C), and the absorbance of the supernatant was recorded at 540 nm vs. reaction buffer. The extent of haemolysis was related to the action of 0.1% Triton X-100 (100%).

[28] = 50 mM ammonium acetate pH 7.4, 0–35% 2-propanol gradient, calibrated retention times, UV
[29] = pH 7.4, 0–35% 2-propanol gradient, value in parentheses

With VRLIVAVRIWRR-NH2 [IDR, IDR-1018] the MBC [1] was 128 (83) µg/ml, the MBC [2] was 128 (83) µg/ml and the MBC [3] was 128 (83) µg/ml. The MBC [4] was > 256 µg/mL, the MBC [5] was 128 (83) µg/ml and the MBC [6] was 128 (83) µg/ml. For the same substance, the MBC [7] was 128 (83) µg/ml, the MBC [8] was 128 (83) µg/ml and the MBC [9] was 64 (42) µg/ml. For the same substance, the MBC [10] was 64 (42) µg/ml, the MBC [11] was 64 (42) µg/ml and the MBC [12] was 64 (42) µg/ml. The MBC [13] was 128 (83) µg/ml, the MBC [14] was 16 (10) µg/ml and the MBC [15] was 32 (21) µg/ml. For the same substance, the MBC [16] was 32 (21) µg/ml, the MBIC90 [17] was 83 µM and the MBIC90 [18] was 167 µM. For the same substance, the MBIC90 [19] was 167 µM, the MBIC90 [20] was > 256 µg/mL and the MBIC90 [21] was 42 µM. The MBIC90 [22] was 42 µM, the “Bound HSA” value [23, 28] was 97.98% and the “log k HSA” value [23, 29] was 1.51. For the same substance, the “Bound AGP” value [24, 28] was 93.37%, the “log k AGP” value [24, 29] was 1.09 and the chromatographic logD ([25]; pH 2.6) was -0.53. For the same substance, the chromatographic logD ([25]; pH 7.4) was 0.88, the chromatographic logD ([25]; pH 10.5) was 4.43 and the “1h LD50” value ([26]; 1 hour exposure) was 15 µg/mL. For the same substance, the “3h LD50” value ([26]; 3 hours exposure) was 11 µg/mL, the “Haemolysis at 5 μM” value ([27]; 5 μM peptide) was 18% and the “Haemolysis at 10 μM” value ([27]; 10 μM peptide) was 28%.
